Assay results taken from ChEMBL document CHEMBL3885881, “DrugMatrix”.

Organism: Rattus norvegicus
Test: DrugMatrix - Regimen: Daily Repeat
Assay type: toxicity, organism-based, Sprague-Dawley
Set-up: regimen Daily Repeat, gender Male, age 6-8 weeks
Details: in vivo, iv, vehicle 100 % SALINE; for ABSOLUTE BASOPHIL / ABSOLUTE EOSINOPHIL / ABSOLUTE LYMPHOCYTE / ABSOLUTE MONOCYTE / ABSOLUTE SEGMENTED NEUTROPHIL / BASOPHIL / EOSINOPHIL / ERYTHROCYTE COUNT / HEMATOCRIT / HEMOGLOBIN / LEUKOCYTE COUNT / LYMPHOCYTE / MEAN CORPUSCULAR HEMOGLOBIN / MEAN CORPUSCULAR HEMOGLOBIN CONCENTRATION / MEAN CORPUSCULAR VOLUME / MONOCYTE / NEUTROPHIL / NUCLEATED RED BLOOD CELLS / PLATELET COUNT: tissue Blood; for ALANINE AMINOTRANSFERASE / ALBUMIN / ALKALINE PHOSPHATASE / ASPARTATE AMINOTRANSFERASE / BLOOD UREA NITROGEN / CARBON DIOXIDE / CHLORIDE / CHOLESTEROL / CREATINE PHOSPHOKINASE / CREATININE / GLUCOSE / LACTATE DEHYDROGENASE / LIPASE / PHOSPHORUS / POTASSIUM / SODIUM / TOTAL BILIRUBIN / TOTAL PROTEIN / URIC ACID: tissue Plasma
[1] = 0 mg/kg, 72 h, dose level Control, time 3 day
[2] = 0 mg/kg, 120 h, dose level Control, time 5 day
[3] = 23 mg/kg, 72 h, dose level High, time 3 day

## COC(=O)C[C@](O)(CCC(C)(C)O)C(=O)O[C@@H]1C(OC)=C[C@]23CCCN2CCc2cc4c(cc2[C@H]13)OCO4 [HARRINGTONINE]
[1]
  ABSOLUTE BASOPHIL: 0 CELLS/uL
  ABSOLUTE EOSINOPHIL: 15.33 CELLS/uL
  ABSOLUTE LYMPHOCYTE: 9513.5 CELLS/uL
  ABSOLUTE MONOCYTE: 94.67 CELLS/uL
  ABSOLUTE SEGMENTED NEUTROPHIL: 709.83 CELLS/uL
  BASOPHIL: 0%
  EOSINOPHIL: 0.17%
  ERYTHROCYTE COUNT: 5.63 x10E6/uL
  HEMATOCRIT: 34.63%
  HEMOGLOBIN: 13.6 G/DL
  LEUKOCYTE COUNT: 10.33 x10E3/uL
  LYMPHOCYTE: 92%
  MEAN CORPUSCULAR HEMOGLOBIN: 24.17 pg
  MEAN CORPUSCULAR HEMOGLOBIN CONCENTRATION: 39.28 G/DL
  MEAN CORPUSCULAR VOLUME: 61.57 fL
  MONOCYTE: 0.83%
  NEUTROPHIL: 7%
  NUCLEATED RED BLOOD CELLS: 0 /100WBC
  PLATELET COUNT: 903.17 x10E3/uL
  ALANINE AMINOTRANSFERASE: 49.33 u/L
  ALBUMIN: 4.27 G/DL
  ALKALINE PHOSPHATASE: 400.83 u/L
  ASPARTATE AMINOTRANSFERASE: 77.5 u/L
  BLOOD UREA NITROGEN: 16.33 mg/dL
  CARBON DIOXIDE: 29.33 mmol/L
  CHLORIDE: 99.67 MEQ/L
  CHOLESTEROL: 66.67 mg/dL
  CREATINE PHOSPHOKINASE: 275.33 u/L
  CREATININE: 0.18 mg/dL
  GLUCOSE: 163.83 mg/dL
  LACTATE DEHYDROGENASE: 125.33 u/L
  LIPASE: 10 u/L
  PHOSPHORUS: 12.12 mg/dL
  POTASSIUM: 6.68 MEQ/L
  SODIUM: 144.02 MEQ/L
  TOTAL BILIRUBIN: 0.18 mg/dL
  TOTAL PROTEIN: 5.87 G/DL
  URIC ACID: 1.63 mg/dL
[2]
  ABSOLUTE BASOPHIL: 0 CELLS/uL
  ABSOLUTE EOSINOPHIL: 48.83 CELLS/uL
  ABSOLUTE LYMPHOCYTE: 14562 CELLS/uL
  ABSOLUTE MONOCYTE: 138.67 CELLS/uL
  ABSOLUTE SEGMENTED NEUTROPHIL: 1733.83 CELLS/uL
  BASOPHIL: 0%
  EOSINOPHIL: 0.33%
  ERYTHROCYTE COUNT: 5.89 x10E6/uL
  HEMATOCRIT: 36.7%
  HEMOGLOBIN: 14.42 G/DL
  LEUKOCYTE COUNT: 16.48 x10E3/uL
  LYMPHOCYTE: 88.83%
  MEAN CORPUSCULAR HEMOGLOBIN: 24.52 pg
  MEAN CORPUSCULAR HEMOGLOBIN CONCENTRATION: 39.3 G/DL
  MEAN CORPUSCULAR VOLUME: 62.37 fL
  MONOCYTE: 0.67%
  NEUTROPHIL: 10.17%
  NUCLEATED RED BLOOD CELLS: 0 /100WBC
  PLATELET COUNT: 1076.5 x10E3/uL
  ALANINE AMINOTRANSFERASE: 44.67 u/L
  ALBUMIN: 4.23 G/DL
  ALKALINE PHOSPHATASE: 357.33 u/L
  ASPARTATE AMINOTRANSFERASE: 84.83 u/L
  BLOOD UREA NITROGEN: 15.5 mg/dL
  CARBON DIOXIDE: 27 mmol/L
  CHLORIDE: 99.5 MEQ/L
  CHOLESTEROL: 63.67 mg/dL
  CREATINE PHOSPHOKINASE: 331.33 u/L
  CREATININE: 0.18 mg/dL
  GLUCOSE: 167.33 mg/dL
  LACTATE DEHYDROGENASE: 320.17 u/L
  LIPASE: 9.17 u/L
  PHOSPHORUS: 12.05 mg/dL
  POTASSIUM: 6.54 MEQ/L
  SODIUM: 143.02 MEQ/L
  TOTAL BILIRUBIN: 0.2 mg/dL
  TOTAL PROTEIN: 6.23 G/DL
  URIC ACID: 2.07 mg/dL
[3]
  ABSOLUTE BASOPHIL: 0 CELLS/uL
  ABSOLUTE EOSINOPHIL: 0 CELLS/uL
  ABSOLUTE LYMPHOCYTE: 9185.67 CELLS/uL
  ABSOLUTE MONOCYTE: 0 CELLS/uL
  ABSOLUTE SEGMENTED NEUTROPHIL: 547.67 CELLS/uL
  BASOPHIL: 0%
  EOSINOPHIL: 0%
  ERYTHROCYTE COUNT: 5.37 x10E6/uL
  HEMATOCRIT: 32.9%
  HEMOGLOBIN: 12.87 G/DL
  LEUKOCYTE COUNT: 9.73 x10E3/uL
  LYMPHOCYTE: 94.33%
  MEAN CORPUSCULAR HEMOGLOBIN: 23.97 pg
  MEAN CORPUSCULAR HEMOGLOBIN CONCENTRATION: 39.1 G/DL
  MEAN CORPUSCULAR VOLUME: 61.2 fL
  MONOCYTE: 0%
  NEUTROPHIL: 5.67%
  NUCLEATED RED BLOOD CELLS: 0 /100WBC
  PLATELET COUNT: 883 x10E3/uL
  ALANINE AMINOTRANSFERASE: 44.67 u/L
  ALBUMIN: 3.57 G/DL
  ALKALINE PHOSPHATASE: 237.67 u/L
  ASPARTATE AMINOTRANSFERASE: 76 u/L
  BLOOD UREA NITROGEN: 14.67 mg/dL
  CARBON DIOXIDE: 24.67 mmol/L
  CHLORIDE: 101 MEQ/L
  CHOLESTEROL: 58.33 mg/dL
  CREATINE PHOSPHOKINASE: 746.33 u/L
  CREATININE: 0.17 mg/dL
  GLUCOSE: 168.33 mg/dL
  LACTATE DEHYDROGENASE: 240.33 u/L
  LIPASE: 8 u/L
  PHOSPHORUS: 11.7 mg/dL
  POTASSIUM: 5.94 MEQ/L
  SODIUM: 141.53 MEQ/L
  TOTAL BILIRUBIN: 0.2 mg/dL
  TOTAL PROTEIN: 5.2 G/DL
  URIC ACID: 1.93 mg/dL
